What is called MBC is the smallest concentration meeting the test's criterion for killing. One may read the MIC as the smallest concentration in the dilution series that meets the test's criterion for growth inhibition. By MIC90 is commonly meant an inhibitory concentration at the 90% level, which refers to growth in some studies and to a panel of isolates in others.

The subject of the experiment is GBS laboratory strains. In words: MBC90:MIC90 ratio method of determining antibiotic tolerance. Type of experiment: cell-based, Group B Streptococcus. The following applies: for Phenotype: by MBC:MIC ratio; for MBC: 24 h, ≧90% non-viable cells, plate counts after 24 h antibiotic; for MIC: ≧90% growth-inhibited, OD600. The procedure:
The inventors ascertained the incidence of antibiotic tolerance in GBS clinical isolates collected from cervicovaginal-rectal swabs, by investigating cell wall inhibitors used to eliminate GBS colonization in pregnant women before delivery as stated by the CDC guidelines. A ratio of the minimum bactericidal concentration (MBC) over minimum inhibitory concentration (MIC) after 24 h of antibiotic incubation or by determining quantitative kill curves has been used to define antibiotic tolerance previously.
The MBC:MIC ratio was calculated for laboratory strains using three β-lactam antibiotics (Penicillin G, Ampicillin, and Cefazolin) and a glycopeptide antibiotic (Vancomycin) (Table 1). Early-log phase cultures of GBS were treated with the individual antibiotics at a concentration of 0.25 to 512×MIC90. The optical density (OD600) of antibiotic treated cultures was used to determine the MIC90 after 24 h and a cell count was used to determine their MBC90. Susceptible, tolerant and intermediate strains were defined by their MBC:MIC ratio of ≦2:1, ≧32:1 and 4:1-16:1 respectively. […] The ratios characterized GBS strains A909 and 2603V/R as Susceptible, O90R as Tolerant, and NEM316 as Intermediate to Penicillin, Ampicillin, and Cefazolin. All four strains were susceptible to Vancomycin.
(I) Bacterial Strains and Culture Conditions. GBS strains A909 (serotype IA), 515 (serotype IA), NEM316 (serotype III), COHI (serotype III), 2603V/R (serotype V) and O90R (non-typable) were used in this study. E. coli Top10 cells were used for the recombination experiments. GBS was cultured in Todd Hewitt broth (THB) or Tryptic Soy 5% sheep blood (TS) media and E. coli in Luria-broth (LB) medium or agar. Antibiotics were used at the following concentrations: for GBS—penicillin G (MIC90 0.06 μg ml^−1), ampicillin (MIC90 0.12 μg ml^−1), vancomycin (MIC90 2 μg ml^−1), cefazolin (MIC90 1 μg ml^−1) and chloramphenicol (5 μg ml^−1); for E. coli—ampicillin (50 μg ml^−1) and chloramphenicol (5 μg ml^−1). Both GBS and E. coli cultures were grown at 37° C. (II) Tolerance Using the MBC:MIC Ratio Method. Three GBS laboratory strains (i.e., A909, NEM316, and O90R) were cultured overnight for 18 h at 37° C. in THB. Subcultures in THB were subsequently grown to exponential phase (OD600˜0.3; i.e. 5×10^5 cfu/ml) at 37° C. Cell cultures were then exposed to different concentrations of antibiotics (Penicillin G, Ampicillin, Cefozolin or Vancomycin). […] Cell cultures were dispersed every 18 h before OD600 was measured to determine the lowest concentration of antibiotic with 90% growth inhibition (MIC90). Antibiotic treated cells (8 μl) from each well were re-suspended into PBS (100 μl) and plated (54 μl) on TS agar plates and allowed to grow for an additional 24 h at 37° C. Cell count was performed to determine the lowest concentration of antibiotic with 90% killing of original inoculums (MBC90). (III) Penicillin Killing and Regrowth Tolerance Assay by Microbroth Dilution. Three GBS laboratory strains (i.e., A909, NEM316, and O90R) were cultured overnight for 18 h at 37° C. in THB. Subcultures in THB were subsequently grown to exponential phase (OD600˜0.3) at 37° C. Cell cultures were then exposed to different concentrations of Penicillin G (Sigma, St. Louis, Mo.). […] Cell cultures were dispersed. A 1:20 dilution of cells was re-plated into new wells containing fresh THB with 500 U Penase (to degrade residual penicillin). Cell cultures were allowed to re-grow for an additional 24 h at 37° C. before the OD600 was measured. (IV) Measuring Cell Viability by Determining ATP Concentration. GBS strains were cultured for 18 h at 37° C. in THB. These cells were inoculated into fresh THB and subsequently allowed to grow to exponential phase (OD600 0.25-0.3) at 37° C. One ml of each culture was centrifuged at 5,000×g for 4 min. The cell pellet was re-suspended in ATP-free water. […]

[1] abbreviates: Streptococcus, GBS strain 2603V/R.
Setting [2] is: Streptococcus, GBS strain NEM316.

As for `CC1(C)S[C@@H]2[C@H](NC(=O)Cc3ccccc3)C(=O)N2[C@H]1C(=O)O` [Penicillin G], the “Ratio (MBC90:MIC90)” value (GBS strain 2603V/R) was found to be 1, the “Ratio (MBC90:MIC90)” value (GBS strain A909) amounted to 1, the “Ratio (MBC90:MIC90)” value (GBS strain NEM316) worked out at 8 and the “Ratio (MBC90:MIC90)” value (GBS strain O90R) turned out to be 32. For the same compound, the Phenotype entry (GBS strain 2603V/R) is “S (MBC:MIC ratio of ≦2:1)”; the Phenotype entry (GBS strain 2603V/R, listed as Penicillin) is on record as “Susceptible”; the Phenotype entry (GBS strain A909) is given as “S (MBC:MIC ratio of ≦2:1)”; the Phenotype entry (GBS strain A909, listed as Penicillin) is “Susceptible”; the Phenotype result (GBS strain NEM316) is recorded as “I (4:1-16:1)”; the Phenotype result (GBS strain NEM316, listed as Penicillin) was “Intermediate”. Further, the Phenotype result runs as follows: (GBS strain O90R) “PT (≧32:1)”; (GBS strain O90R, listed as Penicillin) “Tolerant”. For the same compound, the minimum bactericidal concentration (MBC) under setting [1] worked out at 0.06 mg/L; the MBC (Streptococcus, GBS strain A909) was 0.06 mg/L; the MBC under setting [2] was 0.48 mg/L; the MBC (Streptococcus, GBS strain O90R) is 3.84 mg/L. Moreover, the MIC reads like this: under setting [1], 0.06 mg/L; (Streptococcus, GBS strain A909) 0.06 mg/L; under setting [2], 0.06 mg/L; (Streptococcus, GBS strain O90R) 0.12 mg/L. Also, the MIC90 (Streptococcus, for GBS, as stated under culture conditions) worked out at 0.06 mg/L.

(Values after patent US8247170B2, “Detection of penicillin tolerance in Group B Streptococcus: single nucleotide polymorphisms in penicillin binding protein 4” (priority 2008, dated 2012).)
